The source of these data is patent US20210278408A1, “METHODS OF TREATMENT OF CANCER WITH SUBSTITUTED PYRROLE AND PYRAZOLE COMPOUNDS AND DIAGNOSIS OF CANCERS SUSCEPTIBLE TO TREATMENT WITH SUBSTITUTED PYRROLE AND PYRAZOLE COMPOUNDS” (Bantam Pharmaceutical, LLC, priority 2018, published 2021).

The test system of one assay is Jurkat. The experiment in a line: Anti-proliferative activity, CellTiter-Glo, 72 hours: Jurkat. Particulars: Homo sapiens, Jurkat (T cell leukemia), Cell-Titre-Glo. Format: cell-based, human. How it is done:
Anti-proliferative activity of BTM compounds. The anti-proliferative activities of Compound A197 and Compound B19 were compared to 4EGI-1 (a known cancer cell growth inhibitor) in a panel of 99 tumor lines. Methods: A panel of 96 tumor and 3 normal cell lines were tested for sensitivity to the test compound. The cell lines were cultured in standard media and pipetted into 96-well plates at the required plating densities. The cells were acclimated for 24 hours prior to compound testing. Compound was prepared as a stock of 20 mM in DMSO. To prepare dose response curves compound was serially diluted in DMSO and dispensed into the plate wells using a Tecan D300e digital dispenser. The final DMSO concentration was 0.15%. After 72 hours of incubation cell number was determined using the CellTiter-Glo® protocol according to the manufacturers instructions (Promega). In this assay, ATP is measured as a surrogate of cell number. The activity of the compound is determined by comparing untreated cells with treated cells and calculating the % of signal retained. Compound activity is measured as an EC50 of maximum level of efficacy and the two are used to compute an activity area. The table below provides a comparison of activity in a data sample.
Background: In ATP-based viability assays light output follows the ATP content of the culture.

The next assay deals with 8305C. The experiment in a line: Cell viability, CellTiter-Glo, 96 h: 8305C. Particulars: for IC50: read-out: Absolute IC50. It is filed as cell-based. How it is done: Viability was determined by using the 50% inhibitory concentration (IC50) as determined with the CellTiter-Glo® Viability Assay (Promega). All cells were cultured under standard conditions in media supplemented with 10-15% Fetal Bovine Serum, at a temperature of 37° C., 5% CO2 and 95% humidity.
Cells were harvested during the logarithmic growth period, counted, and the cell concentration adjusted to 4.44×10^4 cells/mL using culture medium. A final cell density of 4×10^3 cells/well was added in a 90 μL cell suspension to plates A and B as shown.
Test plate B was incubated for 96 h in the humidified incubator at 37° C. with 5% CO2.
Following the incubation, the plate was equilibrated at room temperature for thirty minutes. CellTiter-Glo® (50 μL) was added to each well of the plate and contents mixed for five minutes on an orbital shaker to induce cell lysis. The luminescent signal was allowed to stabilize at room temperature for 20 minutes and the luminescence recorded.
IC50 (EC50) was calculated using a dose-response curve, fitted using a nonlinear regression model with a sigmoidal dose response. Survival rate was calculated using the formula:
The Surviving rate (%)=(LumTest article−LumMedium control)/(LumNon-treated−LumMedium control)×100%.
Absolute IC50 (EC50) was calculated according to the dose-response curve generated by the statistical software (GraphPad Prism 5.0).

Read-outs that look alike come from different tables or passages of the source.

With `Cc1nn(-c2nc(-c3ccc(C(F)(F)F)cc3)c(SC(C)C)s2)c(C(=O)O)c1-c1cccc(F)c1` [Compound A197, 4-(3-fluorophenyl)-1-(5-(isopropylthio)-4-(4-(trifluoromethyl)phenyl)thiazol-2-yl)-3-methyl-1H-pyrazole-5-carboxylic acid], the IC50 with Jurkat is 179 nM; in the assay with 8305C (Homo sapiens) it was above 30000 nM. For the same molecule, in the assay with 8305C, the “% inhibition at top conc.” value was 33.79%.
In the assay with Jurkat, `COC(=O)c1c(-c2cccc(F)c2)c(C)nn1-c1nc(C2=CCC(C(F)(F)F)CC2)c(SC(C)C)s1` (single isomer, unassigned) [Compound B19, methyl 4-(3-fluorophenyl)-1-(5-(isopropylthio)-4-(4-(trifluoromethyl)cyclohex-1-en-1-yl)thiazol-2-yl)-3-methyl-1H-pyrazole-5-carboxylate] had a 50% inhibitory concentration (IC50) of 166 nM.
For the molecule `N.N.[Cl][Pt][Cl]` [Cisplatin, reference compound], in the assay on 8305C, the “% inhibition at top conc.” value came to 99.17% and the half-maximal inhibitory concentration (IC50) worked out at 6140 nM.

One may read the IC50 as the concentration needed to halve the response being measured. By % inhibition is commonly meant how much of the control response was suppressed. A lower % inhibition goes with a weak effect.
